# US5260276A, “Linear and monocyclic endothelin antagonists” (Warner-Lambert Company, priority 1991, dated 1993)
# Where a SMILES comes first, the peptide text is derived from it. Bridges are numbered along the chain shown (N, C = ends). Where no end group is shown, it is not given here. [ ]: non-standard residue; d: D form. Ava = NCCCCC(=O)O
# Columns and labels:
# [1] = molecular target: endothelin receptor ([125I]-ET-1 binding), rat heart ventricle; assay: Inhibition of [125I]-ET-1 binding in a receptor assay, rat heart ventricle; conditions: [125I]-ET-1, rat heart ventricle 10 μg, 37° C., 2 hours
# Procedure: The compounds of Formula I are valuable antagonists of endothelin. […] Thus, the compounds of Formula I were tested for their ability to inhibit [^125 I]-ET-1([^125 I]-Endothelin-1) binding in a receptor assay. The binding of the compounds of Formula I is determined by incubation (37° C., 2 hours) of a compound of Formula I with [^125 I]-ET-1 and the tissue (rat heart ventricle (10 μg)) in 50 mM Tris(hydroxymethyl)aminomethane hydrochloride (Tris-HCl) (pH 7.4), 5 mM ethylenediamine tetraacetic acid (EDTA), 2 mM ethylene glycol bis(β-aminoethyl ether)N,N,N',N'-tetraacetic acid (EGTA), 100 μM phenylmethylsulfonyl fluoride (PMSF), and 100 μM bacitracin containing protease inhibitors (total volume of 0.5 mL). IC50 values are calculated by weighing nonlinear regression curve-fitting to the mass-action (Langmuir) equation. The functional activity of compounds of Formula I is determined in Rat-1 cells by measuring intracellular levels of second messengers. Thus, cells are prelabeled with [^3 H]-inositol and endothelin-stimulated accumulation of total [^3 H]-inositol phosphates in the presence of Li^+ is monitored using anion exchange chromatography as described by Muldoon, L. L., et al, Journal of Biological Chemistry, Volume 264, pages 8529-8536 (1989) and Dudley, D. T., et al, Molecular Pharmacology, Volume 38, pages 370-377 (1990). Antagonist activity is assessed as the ability of added compounds to reduce endothelin stimulated inositol phosphate accumulation. The data in the table show the endothelin antagonist activity of representative compounds of Formula I.
# [2] = test system: ET receptor, selected tissues; conditions: relative to ET-1; cited from earlier work
IC50 [1],Compound,fold less functional activity [2]
1800 nM,CC[C@H](C)[C@H](NC(=O)[C@H](CC(=O)O)NC(=O)[C@H](CC(C)C)NC(=O)[C@H](Cc1c[nH]cn1)NC(=O)[C@@H]1CSSC[C@H](N)C(=O)N[C@@H](CO)C(=O)NCCCCC(=O)N[C@@H](C(C)C)C(=O)N[C@@H](Cc2ccc(O)cc2)C(=O)N[C@@H](Cc2ccccc2)C(=O)N1)C(=O)N[C@H](C(=O)N[C@@H](Cc1c[nH]c2ccccc12)C(=O)O)[C@@H](C)CC [Example 5] (H-CS[Ava]VYFCHLDIIW-OH; disulfide 1-7; N-terminus and C-terminus assumed),–
3200 nM,CC[C@H](C)[C@H](NC(=O)[C@H](CC(=O)O)NC(=O)[C@H](CC(C)C)NC(=O)[C@H](Cc1c[nH]cn1)NC(=O)[C@@H]1CSSC[C@H](N)C(=O)N[C@@H](CO)C(=O)N[C@@H](CC(=O)O)C(=O)N[C@@H](CC(C)C)C(=O)N[C@@H](CCC(=O)O)C(=O)N[C@@H](C(C)C)C(=O)N[C@@H](Cc2ccc(O)cc2)C(=O)N[C@@H](Cc2ccccc2)C(=O)N1)C(=O)N[C@H](C(=O)N[C@@H](Cc1c[nH]c2ccccc12)C(=O)O)[C@@H](C)CC [Example 10] (H-CSDLEVYFCHLDIIW-OH; disulfide 1-9),–
2600 nM,CC[C@@H](C)[C@@H](NC(=O)[C@@H](NC(=O)[C@H](CC(=O)O)NC(=O)[C@H](CC(C)C)NC(=O)[C@H](Cc1c[nH]cn1)NC(=O)[C@@H]1CSSC[C@H](N)C(=O)N[C@@H](CO)C(=O)N[C@@H](CO)C(=O)N[C@@H](CO)C(=O)N[C@@H](C(C)C)C(=O)N[C@@H](Cc2ccc(O)cc2)C(=O)N[C@@H](Cc2ccccc2)C(=O)N1)[C@@H](C)CC)C(=O)N[C@@H](Cc1c[nH]c2ccccc12)C(=O)O [Example 14] (H-CSSSVYFCHLDI[dI]W-OH; disulfide 1-8; N-terminus assumed),–
–,"ET[1-20]: endothelin-1 fragment 1-20, lacking the C-terminal amino acid Trp-21 (CSCSSLMDKECVYFCHLDII; ends and bridges not checked; cysteine pairing not given here; UniProt P05305 53-72, looked up, fragment)",approximately 1000 fold
